Measured values taken from PubChem BioAssay (NCI).
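Exposure lasted 48 hours, with cells grown in 96-well plates and compounds tested at five concentrations. Abbreviation: GI50, concentration required for 50% inhibition of growth. At the TGI there is no net growth.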

Tests used:
Experiment in all cases: inhibition of tumour cell growth, NCI panel, 48 h
[1] = tested on: 786-0 renal
[2] = tested on: CCRF-CEM leukemia
[3] = tested on: DU-145 prostate
[4] = tested on: HCT-15 colon
[5] = tested on: KM12 colon
[6] = tested on: MDA-MB-231 breast
[7] = tested on: MDA-MB-435
[8] = tested on: NCI/ADR-RES ovarian
[9] = tested on: SF-268 CNS
[10] = tested on: UO-31 renal

SMILES	GI50 [1] [µM]	TGI [1] [µM]	GI50 [2] [µM]	TGI [2] [µM]	GI50 [3] [µM]	TGI [3] [µM]	GI50 [4] [µM]	TGI [4] [µM]	GI50 [5] [µM]	TGI [5] [µM]	GI50 [6] [µM]	TGI [6] [µM]	GI50 [7] [µM]	TGI [7] [µM]	GI50 [8] [µM]	TGI [8] [µM]	GI50 [9] [µM]	TGI [9] [µM]	GI50 [10] [µM]	TGI [10] [µM]
Oc1c(I)cc(I)cc1CN(Cc1ccccn1)Cc1ccccn1	0.952	12	0.385	30.8	1.57	20.4	0.453	> 40.6	0.774	> 42.3	1.86	> 51.3	2.19	18.7	1.13	6.46	0.575	16.1	0.554	3.07
CCN1CCN(c2ccc(Nc3ncc4ccc5ncn(C(C)C)c5c4n3)nc2)CC1	0.102	1.69	0.145	3.63	0.126	4.3	0.0636	1.16	0.123	0.719	0.111	0.727	0.132	1.61	0.292	13.9	0.117	0.47	0.0291	0.378
Cc1nc2sc(C(=O)Nc3cccc(Br)c3)c(N)c2cc1C(O)c1ccccc1 (stereo not drawn)	1.6	18.4	0.413	> 43.2	0.672	13.9	0.403	17.3	0.689	12.6	1.85	16.4	0.199	0.449	0.619	8.47	1.81	20.2	1.82	16.5
Nc1nc(-c2ccc(Cl)cc2)cc(-c2ccccc2)c1-c1nc2ccccc2o1	4.52	19.8	4.2	33.6	7.68	30.4	6.15	28.3	2.65	8.17	5.02	17.8	9.45	26.9	5.46	> 100	6.38	67.2	10.3	26.4
COc1ccc2nc(-c3cc4c([nH]c5ccccc54)c(-c4ccc(F)c(F)c4)n3)[nH]c2c1	10.2	24.9	2.36	7.8	4.13	17.3	3.41	16.7	2.93	13	10.4	34	3.69	15.4	4.22	64.8	5.8	69.6	1.46	16.1
COc1cc(C)c(NC(=O)CN(C)C)cc1Nc1nc(Nc2cccc(F)c2C(N)=O)c2cc[nH]c2n1	4.15	8.76	0.403	4.88	0.826	3.7	1.98	6.9	0.524	1.92	2.66	6.72	0.161	2.56	2.64	7.59	1.27	5.47	3.33	7.08
Nc1nc(-c2ccccc2)cc(-c2ccc(Cl)cc2)c1-c1nc2ccccc2o1	10.6	22.3	3.8	17	12.8	26	10.4	23.2	5.65	20.7	6	18.9	17.6	35.3	11.5	43.4	10.9	27.7	8.36	21.3
Nc1ccc(-c2ccc(-c3nc4cc(Cl)c(Cl)cc4[nH]3)cc2)cc1	2.05	18.9	0.508	> 52.7	2.36	98.4	0.406	> 100	0.826		3.34	> 49.6	0.199	> 84.7	3.6	> 79.2		9.24	0.674	13.3
C=C1C(=O)O[C@H]2[C@H]1CC/C(COC(=O)NCc1cc(OC)cc(OC)c1)=C\CC[C@@]1(C)O[C@@H]21	1.7	3.45	0.476	4.36	0.724	2.03	0.77	2.25	2.8	11	1.61	4.07	1.99	4.11	2.98	10.2	2.46	9.9	1.51	2.95
O=C(O)CCSC(=S)Nc1ccc([N+](=O)[O-])cc1		> 100		> 68.2		> 100		> 100		> 100		> 100		61.3		> 100		> 100		> 100
Cn1c(=O)c2[nH]c(CCCCc3nc4c([nH]3)c(=O)n(C)c(=S)n4C)nc2n(C)c1=S		> 100		> 100		> 100		> 100		> 100		> 100		> 100		> 100		> 100		> 100
C=C(C)[C@@H]1CC[C@]2(C(N)=O)CC[C@]3(C)[C@H](CC[C@@H]4[C@@]5(C)C/C(=C/c6cccnc6)[C@H](O)C(C)(C)[C@@H]5CC[C@]43C)[C@@H]12	6.24	> 100	3.86	> 100	7.08	> 100	2.6	> 100	3.82	> 100	99.5	> 100	3.77	> 100	3.74	> 100	6.8	> 100	3.02	> 100
Cc1ccc2c(c1)C=CC(C#N)N2C(=O)Oc1ccccc1 (stereo not drawn)		> 100		40.1		42.7		57.2		33.2		> 100		29.7		50.6		> 100		> 100
CCCCCC/C=C1\CCC(CN(C)C)C1=O (stereo not drawn)		3.99		7.21		41.3		6.61		6.68		18		21.6		44.4		14.3		28.9
